Holding throughout (assay type): cell-based, human
Experiment [1] relates to p-ERK in AGS cells (KRAS G12D mutation). The experiment is described as follows: Cell p-ERK assay (HTRF, Advance ERK phospho-T202/Y204 kit). The note with it: Homo sapiens; AGS cells, 3 hours incubation with compound, HTRF; read-out: AGS p-ERK IC50. An outline of the steps:
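AGS cells (endogenous KRAS G12D) seeded at ~20000 cells/well overnight, then treated 3 h with 3.16-fold compound dilutions, 0.1% DMSO final. Lysates assayed for phospho-T202/Y204 ERK by HTRF after 4 h antibody incubation; inhibition vs DMSO and blank, IC50 by four-parameter fit.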

A further experiment relates to AGS cells (KRAS G12D). The experiment is described as follows: Cell proliferation inhibition assay, 3D, CellTiter-Glo 3D, AGS. To be noted: Homo sapiens, 120 h, AGS 3D sphere model, 5 days incubation. Summed up:
(§1)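 Spheroids (800 AsPC-1 or 400 AGS cells/well; RPMI-1640 or F-12K with 10% FBS) formed overnight, then were dosed on day 2 with a 3.16-fold series at 0.1% DMSO. After 5 days, viability was read by CellTiter-Glo 3D luminescence, and IC50 came from four-parameter fits of inhibition versus DMSO control and medium blank.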
(Cellular ATP, detected with luciferase, serves as a proxy for viable cell number.)

The subject of experiment [2] is AsPC-1 cells (KRAS G12D mutation). The experiment is described as follows: Cell proliferation inhibition assay, 3D, CellTiter-Glo 3D, AsPC-1. The note with it: Homo sapiens, ASPC1, 120 h, AsPC-1 3D sphere model, 5 days incubation. An outline of the steps:
as §1

Consider `C#Cc1c(F)ccc2cccc(-c3nc4c5c(nc(OCC67C[C@@H](OC)CN6CCC7=C)nc5c3F)N3C[C@H]5CC[C@H](N5)[C@H]3[C@H](C)O4)c12` (stereo partly drawn) [Example Z688, (5S,5aS,6S,9R)-2-(8-Ethynyl-7-Fluoronaphthalen-1-Yl)-1-Fluoro-12-(((6R)-6-Methoxy-1-Methylenetetrahydro-1H-Pyrrolizin-7a (5H)-Yl)Methoxy)-5-Methyl-5a,6,7,8,9,10-Hexahydro-5H-4-Oxa-3,10a,11,13,14-Pentaaza-6,9-Methanonaphtho[1,8-Ab]Heptalene], for which the IC50 (as a rule, the concentration that gives 50% inhibition) in experiment [1] stood at 0.00877 µM; in the experiment with AGS cells (KRAS G12D) it was 0.02 µM; in experiment [2], 0.0392 µM.
Take `C#Cc1c(F)ccc2cccc(-c3nc4c5c(nc(OCC67CC8CC8N6CCC7=C)nc5c3F)N3C[C@H]5CC[C@H](N5)[C@H]3[C@H](C)O4)c12` (stereo partly drawn) [Example Z635, (5S,5aS,6S,9R)-2-(8-ethynyl-7-fluoronaphthalen-1-yl)-1-fluoro-5-methyl-12-((5-methylenehexahydrocyclopropa[b]pyrrolizin-5a (3H)-yl)methoxy)-5a,6,7,8,9,10-hexahydro-5H-4-oxa-3,10a, 11,13,14-pentaaza-6,9-methanonaphtho[1,8-ab]heptalene]: the results for the half-inhibitory concentration (IC50) (in experiment [1]; in the experiment with AGS cells (KRAS G12D); in experiment [2]) were 0.05 µM, 0.224 µM and 0.218 µM, respectively.
In the same order, the values of `C#Cc1c(F)ccc2cc(O)cc(-c3nc4c5c(nc(OCC67CC(=C)CN6CC(=C)C7)nc5c3F)N3C[C@H]5CC[C@H](N5)[C@H]3[C@H](C)O4)c12` [Example Z553, 4-((5S,5aS,6S,9R)-12-((2,6-dimethylenetetrahydro-1H-pyrrolizin-7a (5H)-yl)methoxy)-1-fluoro-5-methyl-5a,6,7,8,9,10-hexahydro-5H-4-oxa-3,10a, 11,13,14-pentaaza-6,9-methanonaphtho[1,8-ab]heptalen-2-yl)-5-ethynyl-6-fluoronaphthalen-2-ol] are 0.00048 µM, 0.00053 µM and 0.00913 µM.
The corresponding values for `C#Cc1cccc2c(F)c(N)cc(-c3nc4c5c(nc(OCC67CCCN6CC(F)(F)C7)nc5c3F)N3C[C@H]5CC[C@H](N5)[C@H]3[C@H](C)O4)c12` (stereo partly drawn) [Example Z725, 4-((5S,5aS,6S,9R)-12-((2,2-difluorotetrahydro-1H-pyrrolizin-7a (5H)-yl)methoxy)-1-fluoro-5-methyl-5a,6,7,8,9,10-hexahydro-5H-4-oxa-3,10a,11,13,14-pentaaza-6,9-methanonaphtho[1,8-ab]heptalen-2-yl)-5-ethynyl-1-fluoronaphthalen-2-amine] are 0.0423 µM, 0.0627 µM and 0.106 µM.
As to `C#Cc1c(F)ccc2cccc(-c3nc4c5c(nc(OCC(=C)CN6CCOCC6)nc5c3F)N3C[C@H]5CC[C@H](N5)[C@H]3[C@H](C)O4)c12` [Example Z687, (5S,5aS,6S,9R)-2-(8-ethynyl-7-fluoronaphthalen-1-yl)-1-fluoro-5-methyl-12-((2-(morpholinomethyl)allyl)oxy)-5a,6,7,8,9,10-hexahydro-5H-4-oxa-3,10a,11,13,14-pentaaza-6,9-methanonaphtho[1,8-ab]heptalene], the 50% inhibitory concentration (IC50) in experiment [1] came to 0.193 µM; with AGS cells (KRAS G12D), 0.392 µM; in experiment [2], 0.513 µM.
The corresponding values for `C#Cc1cccc2cccc(-c3nc4c5c(nc(OC[C@]67CCCN6CCC7=C)nc5c3F)N3C[C@H]5CC[C@H](N5)[C@H]3[C@H](C)O4)c12` [Example Z677, (5S,5aS,6S,9R)-2-(8-ethynylnaphthalen-1-yl)-1-fluoro-5-methyl-12-(((R)-1-methylenetetrahydro-1H-pyrrolizin-7a (5H)-yl)methoxy)-5a,6,7,8,9,10-hexahydro-5H-4-oxa-3,10a,11,13,14-pentaaza-6,9-methanonaphtho[1,8-ab]heptalene] are 0.185 µM, 0.795 µM and 0.981 µM.
As to `C#Cc1c(F)ccc2cc(O)cc(-c3nc4c5c(nc(OCC67CC(=C)CN6CC(=C)C7)nc5c3F)N3C[C@H]5CC[C@H](N5)[C@H]3CO4)c12` [Example Z380, 4-((5aS,6S,9R)-12-((2,6-Dimethylenetetrahydro-1H-Pyrrolizin-7a (5H)-Yl)Methoxy)-1-Fluoro-5a,6,7,8,9,10-Hexahydro-5H-4-Oxa-3,10a,11,13,14-Pentaaza-6,9-Methanonaphtho[1,8-Ab]Heptalen-2-Yl)-5-Ethynyl-6-Fluoronaphthalen-2-Ol], the values for the IC50 (in experiment [1]; in the experiment on AGS cells (KRAS G12D); in experiment [2]) were 0.00078 µM, 0.00268 µM and 0.0262 µM, respectively.
Take `C#Cc1cccc2cc(N)cc(-c3nc4c5c(nc(OCC6(CN7CC(F)(F)C7)CC6)nc5c3F)N3C[C@H]5CC[C@H](N5)[C@H]3[C@H](C)O4)c12` [Example Z713, 4-((5S,5aS,6S,9R)-12-((1-((3,3-difluoroazetidin-1-yl)methyl)cyclopropyl)methoxy)-1-fluoro-5-methyl-5a,6,7,8,9,10-hexahydro-5H-4-oxa-3,10a, 11, 13,14-pentaaza-6,9-methanonaphtho[1,8-ab]heptalen-2-yl)-5-ethynylnaphthalen-2-amine]: the IC50 in experiment [1] is 0.022 µM; in the experiment on AGS cells (KRAS G12D), 0.0735 µM; in experiment [2], 0.0556 µM.
In the case of `C#Cc1c(F)ccc2cccc(-c3nc4c5c(nc(OCC6(CN7CCOCC7)CC6)nc5c3F)N3C[C@H]5CC[C@H](N5)[C@H]3[C@H](C)O4)c12` [Example Z693, (58,5aS,6S,9R)-2-(8-ethynyl-7-fluoronaphthalen-1-yl)-1-fluoro-5-methyl-12-((1-(morpholinomethyl)cyclopropyl)methoxy)-5a,6,7,8,9,10-hexahydro-5H-4-oxa-3,10a, 11, 13,14-pentaaza-6,9-methanonaphtho[1,8-ab]heptalene], the IC50 was found to be 0.00923 µM in experiment [1], 0.0273 µM in the experiment with AGS cells (KRAS G12D) and 0.0311 µM in experiment [2].
In the same order, the values of `C#Cc1c(F)ccc2cccc(-c3nc4c5c(nc(OCC67CC(=C)CN6CCC7CO)nc5c3F)N3C[C@H]5CC[C@H](N5)[C@H]3[C@H](C)O4)c12` (stereo partly drawn) [Example Z683, (7a-((((5S,5aS,6S,9R)-2-(8-ethynyl-7-fluoronaphthalen-1-yl)-1-fluoro-5-methyl-5a,6,7,8,9,10-hexahydro-5H-4-oxa-3,10a,11,13,14-pentaaza-6,9-methanonaphtho[1,8-ab]heptalen-12-yl)oxy)methyl)-6-methylenehexahydro-1H-pyrrolizin-1-yl)methanol] are 0.00584 µM, 0.0227 µM and 0.079 µM.
With `C#Cc1c(F)ccc2cccc(-c3nc4c5c(nc(OC[C@@]67CCCN6CCC7=C)nc5c3F)N3C[C@H]5CC[C@H](N5)[C@H]3[C@H](C)O4)c12` [Example Z639, (5S,5aS,6S,9R)-2-(8-ethynyl-7-fluoronaphthalen-1-yl)-1-fluoro-5-methyl-12-(((S)-1-methylenetetrahydro-1H-pyrrolizin-7a (5H)-yl)methoxy)-5a,6,7,8,9,10-hexahydro-5H-4-oxa-3,10a, 11, 13,14-pentaaza-6,9-methanonaphtho[1,8-ab]heptalene], the concentration for half-maximal inhibition (IC50) in experiment [1] worked out at 0.0334 µM; in the experiment on AGS cells (KRAS G12D) it was 0.113 µM; in experiment [2] it was 0.0937 µM.
In the same order, the values of `C#Cc1cccc2c(F)c(N)cc(-c3nc4c5c(nc(OCC67CC(=C)CN6CC(=C)C7)nc5c3F)N3C[C@H]5CC[C@H](N5)[C@H]3[C@H](C)O4)c12` [Example Z727, 4-((5S,5aS,6S,9R)-12-((2,6-dimethylenetetrahydro-1H-pyrrolizin-7a (5H)-yl)methoxy)-1-fluoro-5-methyl-5a,6,7,8,9,10-hexahydro-5H-4-oxa-3,10a, 11,13,14-pentaaza-6,9-methanonaphtho[1,8-ab]heptalene-2-yl)-5-ethynyl-1-fluoronaphthalen-2-amine] are 0.00501 µM, 0.0093 µM and 0.0123 µM.
The corresponding values for `C#Cc1c(F)ccc2cccc(-c3nc4c5c(nc(OCC67CC(=C)CN6C[C@H]6C[C@H]67)nc5c3F)N3C[C@H]5CC[C@H](N5)[C@H]3[C@H](C)O4)c12` (stereo partly drawn) [Example Z606, (5S,5aS,6S,9R)-2-(8-ethynyl-7-fluoronaphthalen-1-yl)-1-fluoro-5-methyl-12-(((1aS,6bR)-5-methylenehexahydrocyclopropa[a]pyrrolizin-6a (4H)-yl)methoxy)-5a,6,7,8,9,10-hexahydro-5H-4-oxa-3,10a,11,13,14-pentaaza-6,9-methanonaphtho[1,8-ab]heptalene] are 0.874 µM, 0.908 µM and 0.802 µM.
The corresponding values for `C#Cc1cc(F)cc2cccc(-c3nc4c5c(nc(OCC67CC(=C)CN6CC(=C)C7)nc5c3F)N3C[C@H]5CC[C@H](N5)[C@H]3[C@H](C)O4)c12` [Example Z550, (5S,5aS,6S,9R)-12-((2,6-dimethylenetetrahydro-1H-pyrrolizin-7a (5H)-yl)methoxy)-2-(8-ethynyl-6-fluoronaphthalen-1-yl)-1-fluoro-5-methyl-5a,6,7,8,9,10-hexahydro-5H-4-oxa-3,10a, 11,13,14-pentaaza-6,9-methanonaphtho[1,8-ab]heptalene] are 0.0912 µM, 0.109 µM and 0.394 µM.
